Literature values, collected in publication PMC8491563 (Journal of controlled release : official journal of the …, 2020).

Test system: CCR2
Conditions: in conjunction with nab-paclitaxel/gemcitabine, 21 treated patients

## O=C(NCC(=O)N1CC[C@H](N[C@H]2CC[C@@](O)(c3ccc(-c4ncccn4)cn3)CC2)C1)c1cccc(C(F)(F)F)c1 [PF-04136309]
  patients responding with a reduction in tumor size compared to the baseline: 23.8%
